Data taken from ChEMBL document CHEMBL5715954, “Silencing c-Myc translation as a therapeutic strategy through targeting PI3Kδ and CK1ε in hematological malignancies” (Blood, 2017).

Experiments:
Parameters in all cases: scale not given: the % may be the effect or the level left
[1] = molecular target: CDC7/DBF4 (Cell division cycle 7-related protein kinase/Activator of S phase kinase) (Homo sapiens) (UniProt Q9UBU7+O00311); assay: Inhibition of human CDC7/DBF4 assessed as enzyme activity at 1 uM using KTFCGTPEYLAPEVRREPRILSEEEQEMFRDFDYIADWC as substrate preincubated for 20 mins followed by [gamma-33P]-ATP addition and measured after 120 mins by radiometric Hot-SpotSM Kinase assay relative to control; type: protein-complex assay
[2] = molecular target: Fibroblast growth factor receptor 2 (Homo sapiens) (UniProt P21802); assay: Inhibition of human FGFR2 assessed as enzyme activity at 1 uM using poly[Glu:Tyr] (4:1) as substrate preincubated for 20 mins followed by [gamma-33P]-ATP addition and measured after 120 mins by radiometric Hot-SpotSM Kinase assay relative to control
[3] = molecular target: Myosin light chain kinase 2, skeletal/cardiac muscle (Homo sapiens) (UniProt Q9H1R3); assay: Inhibition of human MLCK2 assessed as enzyme activity at 1 uM using KKLNRTLSFAEPG as substrate preincubated for 20 mins followed by [gamma-33P]-ATP addition and measured after 120 mins by radiometric Hot-SpotSM Kinase assay relative to control
[4] = molecular target: Casein kinase I isoform gamma-1 (Homo sapiens) (UniProt Q9HCP0); assay: Inhibition of human CK1g1 assessed as enzyme activity at 1 uM using KRRRAL[pS]VASLPGL as substrate preincubated for 20 mins followed by [gamma-33P]-ATP addition and measured after 120 mins by radiometric Hot-SpotSM Kinase assay relative to control
[5] = molecular target: Misshapen-like kinase 1 (Homo sapiens) (UniProt Q8N4C8); assay: Inhibition of human MINK1 assessed as enzyme activity at 1 uM using myelin basic protein as substrate preincubated for 20 mins followed by [gamma-33P]-ATP addition and measured after 120 mins by radiometric Hot-SpotSM Kinase assay relative to control
[6] = molecular target: Vascular endothelial growth factor receptor 1 (Homo sapiens) (UniProt P17948); assay: Inhibition of human FLT1 assessed as enzyme activity at 1 uM using poly[Glu:Tyr] (4:1) as substrate preincubated for 20 mins followed by [gamma-33P]-ATP addition and measured after 120 mins by radiometric Hot-SpotSM Kinase assay relative to control
[7] = molecular target: STE20/SPS1-related proline-alanine-rich protein kinase (Homo sapiens) (UniProt Q9UEW8); assay: Inhibition of human STK39 assessed as enzyme activity at 1 uM using myelin basic protein as substrate preincubated for 20 mins followed by [gamma-33P]-ATP addition and measured after 120 mins by radiometric Hot-SpotSM Kinase assay relative to control
[8] = molecular target: T1, MAP kinase-activated protein kinase 5 (Homo sapiens) (UniProt Q8IW41); assay: Inhibition of human MAPKAPK5 assessed as enzyme activity at 1 uM using KKLNRTLSVA as substrate preincubated for 20 mins followed by [gamma-33P]-ATP addition and measured after 120 mins by radiometric Hot-SpotSM Kinase assay relative to control
T1 sequence (whole entry): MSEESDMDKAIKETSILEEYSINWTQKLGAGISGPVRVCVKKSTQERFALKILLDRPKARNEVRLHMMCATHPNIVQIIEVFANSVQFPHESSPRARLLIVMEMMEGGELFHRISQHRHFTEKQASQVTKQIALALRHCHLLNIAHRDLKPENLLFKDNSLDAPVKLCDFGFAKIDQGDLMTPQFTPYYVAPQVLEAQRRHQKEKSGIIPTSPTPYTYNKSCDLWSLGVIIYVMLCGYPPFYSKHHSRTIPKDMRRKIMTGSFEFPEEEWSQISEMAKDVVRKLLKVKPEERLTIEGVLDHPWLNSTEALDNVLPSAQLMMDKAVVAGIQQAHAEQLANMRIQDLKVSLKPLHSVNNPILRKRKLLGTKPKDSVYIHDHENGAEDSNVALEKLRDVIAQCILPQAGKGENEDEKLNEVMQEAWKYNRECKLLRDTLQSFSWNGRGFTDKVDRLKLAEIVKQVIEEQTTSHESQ

[9] = molecular target: T2, Serine/threonine-protein kinase TAO1 (Homo sapiens) (UniProt Q7L7X3); assay: Inhibition of human TAOK1 assessed as enzyme activity at 1 uM using myelin basic protein as substrate preincubated for 20 mins followed by [gamma-33P]-ATP addition and measured after 120 mins by radiometric Hot-SpotSM Kinase assay relative to control
T2 sequence (whole entry): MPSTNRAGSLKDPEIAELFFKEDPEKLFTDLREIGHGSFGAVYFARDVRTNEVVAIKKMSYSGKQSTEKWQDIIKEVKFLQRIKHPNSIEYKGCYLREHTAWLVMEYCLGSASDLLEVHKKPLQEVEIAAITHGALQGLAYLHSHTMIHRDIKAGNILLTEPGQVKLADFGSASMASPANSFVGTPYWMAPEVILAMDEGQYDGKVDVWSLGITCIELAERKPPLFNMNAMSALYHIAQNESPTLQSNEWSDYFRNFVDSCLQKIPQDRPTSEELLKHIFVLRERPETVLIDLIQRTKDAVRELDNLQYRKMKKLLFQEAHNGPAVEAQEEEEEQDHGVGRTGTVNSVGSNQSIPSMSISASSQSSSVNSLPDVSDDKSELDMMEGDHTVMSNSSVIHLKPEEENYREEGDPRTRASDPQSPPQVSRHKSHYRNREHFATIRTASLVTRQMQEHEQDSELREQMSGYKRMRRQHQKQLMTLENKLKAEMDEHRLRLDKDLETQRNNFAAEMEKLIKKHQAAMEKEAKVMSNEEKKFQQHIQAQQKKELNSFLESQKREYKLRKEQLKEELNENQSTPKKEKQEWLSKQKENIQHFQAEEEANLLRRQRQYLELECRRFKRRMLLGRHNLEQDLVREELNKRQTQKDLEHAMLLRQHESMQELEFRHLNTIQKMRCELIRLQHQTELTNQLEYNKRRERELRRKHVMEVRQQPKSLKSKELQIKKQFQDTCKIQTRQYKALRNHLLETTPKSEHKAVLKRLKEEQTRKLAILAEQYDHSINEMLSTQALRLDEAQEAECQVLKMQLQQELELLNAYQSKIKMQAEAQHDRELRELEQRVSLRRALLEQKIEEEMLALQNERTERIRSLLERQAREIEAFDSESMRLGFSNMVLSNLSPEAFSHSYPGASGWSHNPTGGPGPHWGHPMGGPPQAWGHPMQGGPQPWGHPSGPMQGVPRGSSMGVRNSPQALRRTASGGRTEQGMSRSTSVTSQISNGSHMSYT

Casein kinase I isoform gamma-1 (Homo sapiens), sequence (Q9HCP0 whole entry, looked up, canonical isoform): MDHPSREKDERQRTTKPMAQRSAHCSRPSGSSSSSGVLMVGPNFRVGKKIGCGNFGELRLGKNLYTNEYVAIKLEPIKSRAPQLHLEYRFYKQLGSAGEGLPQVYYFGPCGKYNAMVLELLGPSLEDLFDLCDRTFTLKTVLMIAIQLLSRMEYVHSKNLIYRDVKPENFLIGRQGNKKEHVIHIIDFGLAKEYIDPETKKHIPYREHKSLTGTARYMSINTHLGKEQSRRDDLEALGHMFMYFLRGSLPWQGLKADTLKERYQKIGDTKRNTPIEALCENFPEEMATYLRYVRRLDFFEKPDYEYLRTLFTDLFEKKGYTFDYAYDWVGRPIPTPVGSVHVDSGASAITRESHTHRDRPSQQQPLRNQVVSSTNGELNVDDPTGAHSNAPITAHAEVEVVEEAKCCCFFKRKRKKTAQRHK
CDC7/DBF4 (Cell division cycle 7-related protein kinase/Activator of S phase kinase) (Homo sapiens), sequence (O00311 whole entry, looked up): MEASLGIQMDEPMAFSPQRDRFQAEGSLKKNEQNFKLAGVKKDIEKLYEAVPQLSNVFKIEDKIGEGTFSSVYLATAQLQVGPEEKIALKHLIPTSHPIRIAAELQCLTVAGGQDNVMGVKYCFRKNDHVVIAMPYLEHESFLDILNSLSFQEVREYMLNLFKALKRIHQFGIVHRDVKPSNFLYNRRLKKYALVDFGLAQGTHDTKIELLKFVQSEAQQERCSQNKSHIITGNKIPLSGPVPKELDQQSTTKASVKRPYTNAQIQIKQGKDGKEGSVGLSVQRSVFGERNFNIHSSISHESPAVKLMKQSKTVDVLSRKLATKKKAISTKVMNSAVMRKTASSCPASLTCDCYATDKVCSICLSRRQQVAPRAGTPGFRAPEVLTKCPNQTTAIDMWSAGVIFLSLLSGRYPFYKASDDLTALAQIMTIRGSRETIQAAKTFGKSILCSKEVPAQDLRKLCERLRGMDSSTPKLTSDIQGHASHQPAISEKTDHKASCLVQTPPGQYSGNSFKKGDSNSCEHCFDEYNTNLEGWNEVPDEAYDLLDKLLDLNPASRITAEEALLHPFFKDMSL
CDC7/DBF4 (Cell division cycle 7-related protein kinase/Activator of S phase kinase) (Homo sapiens), sequence (Q9UBU7 whole entry, looked up): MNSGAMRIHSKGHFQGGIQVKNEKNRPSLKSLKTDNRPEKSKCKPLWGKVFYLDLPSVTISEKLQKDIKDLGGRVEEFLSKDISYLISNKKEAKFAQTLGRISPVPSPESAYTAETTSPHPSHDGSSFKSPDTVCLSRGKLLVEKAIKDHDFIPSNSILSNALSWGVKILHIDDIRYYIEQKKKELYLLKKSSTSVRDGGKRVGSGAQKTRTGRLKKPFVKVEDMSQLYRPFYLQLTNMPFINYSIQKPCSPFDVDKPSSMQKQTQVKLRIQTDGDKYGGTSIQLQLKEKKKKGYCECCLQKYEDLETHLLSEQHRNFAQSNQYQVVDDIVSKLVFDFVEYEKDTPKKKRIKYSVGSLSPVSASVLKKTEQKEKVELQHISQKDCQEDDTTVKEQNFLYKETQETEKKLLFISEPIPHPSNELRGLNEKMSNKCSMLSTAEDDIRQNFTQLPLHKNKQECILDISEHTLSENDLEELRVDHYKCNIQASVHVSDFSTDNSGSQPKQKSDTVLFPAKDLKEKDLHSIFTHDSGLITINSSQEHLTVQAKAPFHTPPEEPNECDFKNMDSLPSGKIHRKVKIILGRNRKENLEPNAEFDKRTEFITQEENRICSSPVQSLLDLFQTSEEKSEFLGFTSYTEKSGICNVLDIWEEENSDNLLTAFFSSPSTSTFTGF
Misshapen-like kinase 1 (Homo sapiens), sequence (Q8N4C8 whole entry, looked up): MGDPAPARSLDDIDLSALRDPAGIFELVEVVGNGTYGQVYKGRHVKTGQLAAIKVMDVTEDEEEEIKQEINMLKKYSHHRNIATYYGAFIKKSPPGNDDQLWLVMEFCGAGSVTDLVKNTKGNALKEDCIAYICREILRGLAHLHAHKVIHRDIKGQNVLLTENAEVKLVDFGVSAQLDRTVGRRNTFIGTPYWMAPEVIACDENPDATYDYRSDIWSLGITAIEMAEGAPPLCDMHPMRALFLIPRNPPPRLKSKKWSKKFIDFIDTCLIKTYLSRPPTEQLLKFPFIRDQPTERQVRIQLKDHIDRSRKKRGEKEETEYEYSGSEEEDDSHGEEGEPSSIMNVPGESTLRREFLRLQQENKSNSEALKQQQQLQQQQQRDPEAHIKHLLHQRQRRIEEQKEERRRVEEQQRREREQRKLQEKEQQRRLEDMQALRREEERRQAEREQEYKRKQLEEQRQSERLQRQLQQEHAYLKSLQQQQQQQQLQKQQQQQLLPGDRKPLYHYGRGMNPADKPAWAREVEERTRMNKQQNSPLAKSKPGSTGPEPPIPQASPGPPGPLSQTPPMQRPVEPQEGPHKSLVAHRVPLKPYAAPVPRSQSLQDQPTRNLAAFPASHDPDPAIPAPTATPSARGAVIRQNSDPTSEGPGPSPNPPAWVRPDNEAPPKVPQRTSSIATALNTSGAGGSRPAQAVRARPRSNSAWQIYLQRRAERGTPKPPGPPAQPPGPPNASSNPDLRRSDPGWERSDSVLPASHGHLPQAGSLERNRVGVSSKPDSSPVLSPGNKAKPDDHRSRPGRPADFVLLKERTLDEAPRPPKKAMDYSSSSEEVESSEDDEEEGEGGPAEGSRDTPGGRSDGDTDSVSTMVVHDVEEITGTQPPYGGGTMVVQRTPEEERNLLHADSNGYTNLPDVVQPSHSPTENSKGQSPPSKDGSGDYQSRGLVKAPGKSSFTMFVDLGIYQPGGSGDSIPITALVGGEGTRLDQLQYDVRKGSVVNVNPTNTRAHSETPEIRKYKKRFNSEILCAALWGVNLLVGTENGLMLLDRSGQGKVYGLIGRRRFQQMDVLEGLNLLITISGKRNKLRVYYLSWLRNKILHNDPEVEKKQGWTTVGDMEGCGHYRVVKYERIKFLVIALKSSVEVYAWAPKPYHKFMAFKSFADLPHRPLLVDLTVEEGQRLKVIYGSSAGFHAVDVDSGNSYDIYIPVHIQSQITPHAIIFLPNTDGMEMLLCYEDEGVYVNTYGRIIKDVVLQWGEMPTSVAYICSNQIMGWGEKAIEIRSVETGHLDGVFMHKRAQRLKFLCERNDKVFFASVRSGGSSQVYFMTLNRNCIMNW
Vascular endothelial growth factor receptor 1 (Homo sapiens), sequence (P17948 whole entry): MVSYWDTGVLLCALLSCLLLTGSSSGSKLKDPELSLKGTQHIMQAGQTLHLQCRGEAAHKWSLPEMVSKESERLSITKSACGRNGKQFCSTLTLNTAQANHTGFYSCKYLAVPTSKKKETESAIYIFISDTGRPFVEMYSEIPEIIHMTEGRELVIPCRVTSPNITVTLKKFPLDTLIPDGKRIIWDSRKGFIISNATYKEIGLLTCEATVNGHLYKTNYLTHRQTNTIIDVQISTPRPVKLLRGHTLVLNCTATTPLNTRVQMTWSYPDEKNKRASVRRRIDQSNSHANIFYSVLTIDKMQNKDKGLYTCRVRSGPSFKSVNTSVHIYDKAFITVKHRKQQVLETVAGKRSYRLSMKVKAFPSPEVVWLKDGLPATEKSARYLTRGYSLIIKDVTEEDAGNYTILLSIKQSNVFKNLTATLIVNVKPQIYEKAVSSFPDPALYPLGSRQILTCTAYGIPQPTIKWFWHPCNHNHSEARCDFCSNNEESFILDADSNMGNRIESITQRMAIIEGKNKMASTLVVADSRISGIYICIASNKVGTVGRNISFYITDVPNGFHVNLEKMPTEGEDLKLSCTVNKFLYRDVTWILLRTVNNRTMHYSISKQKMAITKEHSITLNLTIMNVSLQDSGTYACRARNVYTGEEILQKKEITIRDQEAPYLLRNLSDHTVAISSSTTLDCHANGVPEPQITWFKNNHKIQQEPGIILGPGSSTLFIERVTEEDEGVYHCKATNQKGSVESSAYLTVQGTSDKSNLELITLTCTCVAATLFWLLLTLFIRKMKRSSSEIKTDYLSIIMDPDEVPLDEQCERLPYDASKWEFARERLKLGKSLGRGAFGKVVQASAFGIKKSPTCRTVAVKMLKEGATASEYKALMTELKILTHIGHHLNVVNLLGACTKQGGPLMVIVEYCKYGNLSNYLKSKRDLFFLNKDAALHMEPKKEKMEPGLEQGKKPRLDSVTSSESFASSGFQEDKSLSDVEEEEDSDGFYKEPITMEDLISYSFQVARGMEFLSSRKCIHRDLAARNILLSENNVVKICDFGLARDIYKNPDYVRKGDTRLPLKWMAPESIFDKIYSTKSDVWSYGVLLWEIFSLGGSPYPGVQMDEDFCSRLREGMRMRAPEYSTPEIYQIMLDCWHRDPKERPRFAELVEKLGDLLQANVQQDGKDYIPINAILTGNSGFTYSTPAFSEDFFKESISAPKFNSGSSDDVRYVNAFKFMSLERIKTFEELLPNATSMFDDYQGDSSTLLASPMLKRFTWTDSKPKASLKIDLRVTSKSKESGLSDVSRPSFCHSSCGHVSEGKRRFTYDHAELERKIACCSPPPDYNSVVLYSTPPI
Myosin light chain kinase 2, skeletal/cardiac muscle (Homo sapiens), sequence (Q9H1R3 whole entry, canonical isoform): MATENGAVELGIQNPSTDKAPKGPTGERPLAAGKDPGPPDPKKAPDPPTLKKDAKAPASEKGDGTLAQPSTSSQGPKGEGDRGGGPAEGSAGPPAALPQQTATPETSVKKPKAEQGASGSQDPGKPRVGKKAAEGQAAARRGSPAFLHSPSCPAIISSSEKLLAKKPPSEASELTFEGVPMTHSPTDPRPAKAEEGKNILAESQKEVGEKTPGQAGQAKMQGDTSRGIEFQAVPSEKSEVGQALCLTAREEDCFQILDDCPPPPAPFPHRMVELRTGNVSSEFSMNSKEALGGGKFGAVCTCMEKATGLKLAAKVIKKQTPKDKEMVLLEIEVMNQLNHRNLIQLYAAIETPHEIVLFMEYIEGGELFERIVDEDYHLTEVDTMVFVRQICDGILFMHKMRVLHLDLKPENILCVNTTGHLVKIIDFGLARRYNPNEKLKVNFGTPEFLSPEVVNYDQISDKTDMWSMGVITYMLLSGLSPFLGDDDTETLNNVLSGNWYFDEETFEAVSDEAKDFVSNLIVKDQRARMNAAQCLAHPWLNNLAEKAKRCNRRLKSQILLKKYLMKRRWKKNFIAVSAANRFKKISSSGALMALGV

Row | Compound | Activity [1] | Activity [2] | Activity [3] | Activity [4] | Activity [5] | Activity [6] | Activity [7] | Activity [8] | Activity [9]
1 | CC[C@H](Nc1ncnc2[nH]cnc12)c1nc2cccc(F)c2c(=O)n1-c1ccccc1 | 91.6% | 95.8% | 98.7% | 105% | 95.2% | 94.4% | 87.1% | 99.5% | 101%
2 | C[C@H](Nc1ncnc2nc[nH]c12)c1cc2cccc(Cl)c2c(=O)n1-c1ccccc1 | 93.8% | 93.9% | 100% | 98.3% | 97% | 94.3% | 78.1% | 99% | 97.9%
3 | CC(C)Oc1ccc(-c2nn([C@@H](C)c3oc4ccc(F)cc4c(=O)c3-c3cccc(F)c3)c3ncnc(N)c23)cc1F [UMBRALISIB] | 92% | 97.8% | 101% | 97.6% | 96.4% | 92.3% | 85.4% | 104% | 92.9%
